From patent publication US20090176864A1, “Methods For Improving Hepatic and Immune Function In An Animal” (Hill's Pet Nutrition, Inc., priority 2004, published 2009)

Key:
Assay type in all cases: in vivo
[1] = Bodyweight of cats fed lipoic acid fortified food
Method: (§1) The study involved three groups of cats: Group 1) cats on a dry control food, Group 2) cats on a dry food fortified with approximately 65 ppm of lipoic acid, and Group 3) cats on a dry food fortified with approximately 650 ppm of lipoic acid on a dry matter basis. All cats were fled control food for a two week baseline period at the end of which time immune function assays were performed. One group of cats was then switched to the 65 ppm test food, one group to the 650 ppm test food and one group remained on control and all were fed for another 6 weeks at which time the baseline tests were performed again.

[2] = system: lymphocyte proliferation; test: Pokeweed mitogen-activated lymphocyte proliferation; conditions: cats
Method: as §1

[3] = system: lymphocyte proliferation; test: Concanavalin A-activated lymphocyte proliferation; conditions: cats; for Concanavalin A-activated lymphocyte proliferation compared to baseline: 6 weeks
Method: as §1

[4] = system: lymphocyte proliferation; test: Phytohaemagglutinin (PHA)-activated lymphocyte proliferation; conditions: cats
Method: as §1

[5] = system: lymphocyte proliferation; test: Lymphocyte proliferation activity in old cats (overall statement); conditions: lipoic acid in food
Method: as §1

[6] = 65 ppm lipoic acid in food, 6 weeks

Compound: O=C(O)CCCC[C@@H]1CCSS1 (racemic) [lipoic acid]
- effects on bodyweight ([1]; 65 ppm lipoic acid in food for 6 weeks): no adverse effects
- effects on bodyweight ([1]; 650 ppm lipoic acid in food for 6 weeks): no adverse effects
- Pokeweed mitogen-stimulated lymphocyte proliferation compared to baseline [2, 6]: significantly increased
- Pokeweed Mitogen stimulation, difference between groups ([2]; control vs 65 ppm vs 650 ppm, ANOVA, beginning and end of study): different between groups (ANOVA P<0.05) at the beginning but not the end
- Concanavalin A-activated lymphocyte proliferation compared to baseline ([3]; 65 ppm lipoic acid in food): significant increase
- Concanavalin A-activated lymphocyte proliferation compared to baseline ([3]; 650 ppm lipoic acid in food): displayed an increase
- Concanavalin A stimulation, difference between the groups ([3]; control vs 65 ppm vs 650 ppm, beginning and end of study): no significant difference
- PHA-stimulated lymphocyte proliferation between baseline and 6 weeks [4, 6]: significant increase
- PHA stimulation, difference between groups ([4]; control vs 65 ppm vs 650 ppm, beginning or end): no significant difference
- lymphocyte proliferation activity [5]: improved
